Values joined by “and” are separate entries in the source; they are usually repeats but may differ in a detail not shown here. Identical values can stand only once.
Assays:
HCC1937 cells = experiment: DNA damage response immunoblots with or without ionizing radiation (10 Gy); format: cell-based, human
Description: FIG. 5A are immunoblots showing the effects of Compound A, ATM inhibitor KU-55933, and their combination on the DNA damage response. HCC1937 were treated for 18 hours with Compound A at 2.5 μM, KU55933 at 10 μM, or their combination, subjected to ionizing irradiation with 10 Gy or mock, lysed 6 hours later, and subjected to immunoblotting. […] Immunoblots were performed using the Nupage System (Invitrogen). The protein concentration was determined using Bradford reagent (Biorad). A total of 20 μg of protein were loaded, except for PAR, Phospho ATM and Phospho DNA-PK/PRKDC western blots, where 40 μg were loaded. Tumor tissue lysates were prepared similarly with the exception of tissue homogenization by using an electric homogenizer for 30 secs after addition of the lysis buffer. Primary antibodies used for western blotting were total AKT (9272), Cleaved […] 3 (9661), total ERK (4695), Phospho AKT Ser473 (4058), Phospho ERK Thr202/Tyr204 (9106), Phospho-Histone H2AX Ser139 (2577), PTEN (9559) from Cell Signaling. Phospho ATM […] (2152-1), Phospho DNA-PK/PRKDC […] (3892-1) from Epitomics, Inc. CD31 (ab28364), Actin (ab6276), INPP4B (ab81269) from Abcam; pADPr (sc56198) from Santacruz Biotechnology; and Ki-67 (RM-9106) was purchased from Thermo Scientific.

[1] = system: BRCA1-deleted mammary tumors of MMTV-CreBRCA1^f/fp53+/− mice; experiment: 18FDG PET-CT scanning of tumor-bearing mice; format: in vivo, mouse; conditions: for FDG-uptake of treated tumors: Compound B-treated versus Compound A or combination
Description: All animal experiments were conducted in accordance with IACUC-approved protocols at Beth Israel Deaconess Medical Center, Boston, and at the University of Vall d'Hebron, Barcelona, Spain. Female MMTV-CreBRCA1^f/fp53+/− mice were obtained by breeding BRCA1 conditional knockout mice from the NIH repository (01XC8, strain C57BL/6) (Xu et al. Nat. Genet., 22: 37-43, 1999); with MMTV-Cre (Jackson Laboratory B6129-TgN(MMTV-Cre)4Mam) (Wagner et al. Nucleic Acids Res., 25: 4323-4330, 1997) and p53 knockout (Taconic Farms, P53N12-M, C57BL/6) (Donehower et al. Nature, 356: 215-221, 1992). At the time of the study, mice had been inbred for 4 years (>7 generations). The floxed or wild type status of Brca1, the presence of the MMTV-Cre transgene and the p53 heterozygosity were determined by PCR. Mice were examined for the occurrence of tumors twice weekly. When tumormetrics were performed, the length and width of the tumor was determined using calipers, and the tumor volume was determined (width^2×length/2). Tumor volume was used as a measure of growth and was recorded as ratio to tumor volume at diagnosis. Tumor doubling times were calculated using the functions of the best fit curves for all data points in each treatment modality. 5-(2,6-dimorpholinopyrimidin-4-yl)-4-(trifluoromethyl)pyridin-2-amine (Compound A) was resuspended in 5% Methylcellulose solution (Fluka) and administered via oral gavage at 50 mg/kg/day or 30 mg/kg/day. 4-[[3-[4-(cyclopropanecarbonyl)piperazine-1-carbonyl]-4-fluorophenyl]methyl]-2H-phthalazin-1-one (Compound B) was resuspended for intraperitoneal administration as described (Rottenberg et al. Proc. Natl. Acad. Sci. USA., 105: 17079-17084, 2008) and dosed at 50 mg/kg/day. For patient-derived tumor grafts consent for tumor use was obtained from patients under a protocol approved by the Vall d'Hebron Hospital Clinical Investigation Ethical Committee. Tumors were subcutaneously implanted in 6-week-old female HsdCpb:NMRI-Foxn1nu mice (Harlan Laboratories, Italy) Animals were supplemented with 1 μM estradiol (Sigma) in the drinking water. After tumor graft growth, tumor tissue was re-implanted into recipient mice, which were randomized upon implant growth.
0.3 to 0.4 mCi of fluorine-18-deoxyglucose were injected intravenously through the retroorbital vein of the anesthetized mouse. After a “washout” period of 1 hour the mouse was imaged on a NanoPET/CT (Bioscan/Mediso) scanner. The NanoPET/CT is a high-resolution small-animal multimodality scanner consisting of 12 lutetium yttrium oxyorthosilicate (LYSO) detector blocks. The blocks comprise a total of 39,780 crystals each with a dimension of 1.2×1.2×13 mm^3.
Images were acquired in three dimensions. The mice remained supine and maintained their position throughout the procedure. First, a CT scan was performed and second, a whole-body ^18F-FDG PET emission scan was acquired covering the same area as the CT scan. Counts per minute (cpm) were obtained, converted to mCi, and values were normalized for ROI volume and injected dose. In order to correct for metabolic variability between exams and to determine tumor-specific uptake changes, FDG-uptake rates were corrected for cardiac FDG-uptake (μCi injected/voxels^tumor)/(μCi/μCi injected/voxels^heart). For studies involving repeat scanning, the change in tumor-specific FDG-uptake was determined in percent (1−(FDG-uptake^post/FDG-uptake^pre)×100) Animals were housed in the Longwood SAIF satellite animal facility between scans.

[2] = after 2 weeks of continued treatment
[3] = within 48 hours of instituting treatment

Row | SMILES | H2AX phosphorylation in response to ionizing radiation (HCC1937 cells; 18 hours pre-treatment, 10 Gy, lysed 6 hours later) | auto-phosphorylation of DNA-PK (HCC1937 cells; Compound A 2.5 μM, 18 hours) | PAR accumulation (HCC1937 cells; Compound A 2.5 μM, KU55933 10 μM) | Rad51 accumulation in response to ionizing radiation (HCC1937 cells; pre-treatment, 10 Gy) | FDG-uptake of treated tumors [1] | median decrease in FDG-uptake [1, 2] [%] | range of decrease in FDG-uptake [1, 2] | decrease in 18FDG-uptake, individual tumors of one mouse ([1]; within 48 hours after start, 50 mg/kg/day by gavage, four simultaneous tumors, 50 mg/kg/day) | median decrease in FDG-uptake [1, 3] [%] | range of decrease in FDG-uptake [1, 3]
1 | Nc1cc(C(F)(F)F)c(-c2cc(N3CCOCC3)nc(N3CCOCC3)n2)cn1 [Compound A, 5-(2,6-dimorpholinopyrimidin-4-yl)-4-(trifluoromethyl)pyridin-2-amine] | prominent augmentation | strong increase | increased | failure to increase Rad51 | strongly reduced FDG-uptake | 54 | 45.5-70.5% | 45% and 64% (2×) and 56% | 46.7 | 38.1-92.3
2 | O=C(c1cc(Cc2n[nH]c(=O)c3ccccc23)ccc1F)N1CCN(C(=O)C2CC2)CC1 [Compound B, 4-[[3-[4-(cyclopropanecarbonyl)piperazine-1-carbonyl]-4-fluorophenyl]methyl]-2H-phthalazin-1-one, reference compound] | – | – | – | – | increased FDG-uptake | – | – | – | – | –

— US20140235630A1, “COMPOSITIONS AND METHODS FOR THE TREATMENT OF PROLIFERATIVE DISEASES” (Beth Israel Deaconess Medical Center, Inc., priority 2011, published 2014)
